System: Streptococcus mutans (Smu) THF riboswitch aptamer (RNA, riboswitch) GGAGAGUAGAUGAUUCGCGUUAAGUGUGUGUGAAUGGGAUGUCGUCACACAACGAAGCGAGAGCGCGGUGAAUCAUUGCAUCCGCUCCA
Test: ITC
Conditions: 70 mM NaCl, 2.5 mM MgCl2, 70 mM Na-HEPES pH 8.0, 1 mM DTT, 37 °C

KD | KD (PK site only) | Structure (SMILES)
160 ± 20 µM | – | Nc1nc2c(N)ncnc2[nH]1
26 ± 3 µM | – | Nc1ncc2[nH]cnc2n1
8 ± 1 µM | – | Nc1ncnc2[nH]cnc12
– | 0.5 ± 0.1 µM | Nc1nc(N)c2[nH]cnc2n1

From publication PMC3935398 (2014)
